This passage reports TGI and GI50 results from PubChem BioAssay (NCI).

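Protocol summary: plate cells (96-well), add compound at 5 concentrations, incubate 48 h, interpolate endpoints linearly. Here, GI50 denotes the concentration required for 50% inhibition of growth. The concentration for full growth arrest is given as TGI.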

One experiment relates to MALME-3M melanoma. The experiment is described as follows: inhibition of tumour cell growth, NCI panel, 48 h.
As for `Cc1c2ccncc2c(C)c2c1[nH]c1ccc(O)c(OCC(F)(F)F)c12`, the TGI was found to be 22.3 µM.
Still for that read-out and setting: as for `CC(C)(C)OC(=O)NC1CCCC1=O` (stereo not drawn), the figure is above 100 µM; as for `Cc1c(C(=O)/C=C/c2ccccc2[N+](=O)[O-])[n+](=O)c2ccccc2n1[O-]`, 27.8 µM.
`O=C1[C@H]2ON(c3ccccc3)C(c3ccco3)[C@H]2C(=O)N1c1ccc(Cc2ccc(N3C(=O)[C@@H]4ON(c5ccccc5)C(c5ccco5)[C@@H]4C3=O)cc2)cc1` (stereo partly drawn) had a TGI above 100 µM.
Same read-out and setting: next, `Cc1cccc(C)c1N1C(=O)C(=O)C(c2nc3ccccc3s2)/C(=N/NC(=O)NN)C1=O` (stereo not drawn): above 100 µM; `CCCCCCC(C)CCCCCCCCCCC(=O)O` (stereo not drawn): above 100 µM.
Compound `CC(C)(C)c1ccc(OC2CCO2)cc1` (stereo not drawn) came in with a TGI above 100 µM.
In turn, `CC1(O)CCn2c(=O)c3cc4ccccc4cc3c(=O)n2C1O` (stereo not drawn) had a TGI above 100 µM.
The same measure, in the same setting: next, `CC(C)[O-].CC(C)[O-].O=c1cccccc1[O-].O=c1cccccc1[O-].[Ti+4]`: 70.2 µM.
Regarding `COc1cc(CNc2nc3ccc(C(F)(F)F)cc3nc2-c2ccccc2)cc(OC)c1OC`, the TGI is above 100 µM.
Still for that read-out and setting: as for `COc1ccccc1NC(=O)/C(=C/c1ccccc1)C(C)=O`, the figure is above 100 µM.
As for `CC(=O)n1c(=O)c2cc3c(=O)n(-c4cccc(C#N)c4)c(=O)c3cc2c1=O`, the TGI is above 100 µM.
The same measure, in the same setting: next, `O=C(CC1(O)C(=O)Nc2c(Cl)ccc(Cl)c21)c1ccc(Cl)cc1Cl` (stereo not drawn): 34.9 µM; `CC1=NN(C(=O)c2ccncc2)C(=O)C1N=Nc1ccc(F)cc1` (stereo not drawn): above 100 µM.
On the same count and under the same terms, as for `COc1ccc(C2Oc3c(c(O)cc4c3[C@H](c3ccc(O)cc3O)[C@H](O)C(c3ccc(O)c(O)c3)O4)C[C@@H]2O)cc1O` (stereo partly drawn), the figure is above 100 µM.
The same measure, in the same setting: next, `CCOC(OC1=C(C#N)CCCC1)C(CC)[Se]c1ccccc1` (stereo not drawn): above 100 µM; `C=C1C2Oc3ccccc3C1N(c1ccccc1)O2` (stereo not drawn): above 100 µM; `O=S1CSSC1`: above 100 µM.
The compound `C=CCNC(=O)N(CCC)CCCC(NC(C)=O)C(=O)NCc1ccccc1` (stereo not drawn) registered a TGI above 100 µM.
For the compound `CN(C)C(=S)Nc1nnc(Nc2ccccc2)s1`, the TGI was above 100 µM.
As to `CC(=O)[CH-]C(=O)c1ccccc1.CC(=O)[CH-]C(=O)c1ccccc1.CC1(C)OCC(C2OC3OC(C)(C)OC3C2[O-])O1.CC[O-].[Ti+4]` (stereo not drawn), the GI50 is 13.4 µM and the TGI turned out to be 27.7 µM.
Turning to `CCOC(=O)C1(Cc2ccc3ccccc3c2)CCCCC(=O)N1` (stereo not drawn), the TGI was found to be 86.5 µM.
Regarding `O=[N+]([O-])c1ccc(-c2cc3c(Nc4ccc(Cl)c(C(F)(F)F)c4)ncnc3s2)cc1`, the GI50 is 1.51 µM and the TGI came out at 4.19 µM.
In turn, `Cc1ccccc1/C=C/C(=O)c1ccccc1` had a TGI of 35 µM.
On to `COC(=O)C1C(=O)N(CCc2c[nH]c3ccccc23)C[C@@H]2CCC(=O)C[C@H]12` (stereo partly drawn), for which the TGI is above 100 µM.
As to `C[C@]12C/C(=C/O)C(=O)C(O)=C1CC[C@@H]1C2CC[C@@]2(C)C1CC[C@@H]2O` (stereo partly drawn), the TGI was 46.2 µM.
The compound `Cc1ccc(C)c(N2C(=O)C(=O)C(c3nc4ccccc4s3)C(=Nc3cccc4c(=O)[nH][nH]c(=O)c34)C2=O)c1` (stereo not drawn) gave a TGI above 100 µM.
On the same count and under the same terms, next, `Cc1cccc(C)c1N1C(=O)C(=O)C(c2nc3ccccc3s2)C(=Nc2cccc3c(=O)[nH][nH]c(=O)c23)C1=O` (stereo not drawn): above 100 µM; `N#CC(C#N)=c1c2nsnc2c(=C(C#N)C#N)c2nsnc12`: 3.11 µM.

The next experiment relates to NCI-H460 lung. The experiment is described as follows: inhibition of tumour cell growth, NCI panel, 48 h.
`Cc1c2ccncc2c(C)c2c1[nH]c1ccc(O)c(OCC(F)(F)F)c12` showed a TGI of 10.5 µM.
On the same count and under the same terms, as for `CC(C)(C)OC(=O)NC1CCCC1=O` (stereo not drawn), the figure is above 100 µM; as for `Cc1c(C(=O)/C=C/c2ccccc2[N+](=O)[O-])[n+](=O)c2ccccc2n1[O-]`, 22.5 µM; as for `O=C1[C@H]2ON(c3ccccc3)C(c3ccco3)[C@H]2C(=O)N1c1ccc(Cc2ccc(N3C(=O)[C@@H]4ON(c5ccccc5)C(c5ccco5)[C@@H]4C3=O)cc2)cc1` (stereo partly drawn), above 100 µM.
Still for that read-out and setting: next, `Cc1cccc(C)c1N1C(=O)C(=O)C(c2nc3ccccc3s2)/C(=N/NC(=O)NN)C1=O` (stereo not drawn): above 100 µM; `CCCCCCC(C)CCCCCCCCCCC(=O)O` (stereo not drawn): above 100 µM.
The same measure, in the same setting: next, `CC(C)(C)c1ccc(OC2CCO2)cc1` (stereo not drawn): 53.3 µM.
In turn, `CC1(O)CCn2c(=O)c3cc4ccccc4cc3c(=O)n2C1O` (stereo not drawn) yielded a TGI above 100 µM.
`COc1cc(CNc2nc3ccc(C(F)(F)F)cc3nc2-c2ccccc2)cc(OC)c1OC`: the TGI was above 100 µM.
Same read-out and setting: as for `COc1ccccc1NC(=O)/C(=C/c1ccccc1)C(C)=O`, the figure is above 100 µM; as for `CC(=O)n1c(=O)c2cc3c(=O)n(-c4cccc(C#N)c4)c(=O)c3cc2c1=O`, above 100 µM; as for `O=C(CC1(O)C(=O)Nc2c(Cl)ccc(Cl)c21)c1ccc(Cl)cc1Cl` (stereo not drawn), 38.3 µM.
For the compound `CC1=NN(C(=O)c2ccncc2)C(=O)C1N=Nc1ccc(F)cc1` (stereo not drawn), the TGI is above 100 µM.
In the case of `COc1ccc(C2Oc3c(c(O)cc4c3[C@H](c3ccc(O)cc3O)[C@H](O)C(c3ccc(O)c(O)c3)O4)C[C@@H]2O)cc1O` (stereo partly drawn), the TGI was above 100 µM.
As for `CCOC(OC1=C(C#N)CCCC1)C(CC)[Se]c1ccccc1` (stereo not drawn), the TGI turned out to be 34.2 µM.
The same measure, in the same setting: next, `C=C1C2Oc3ccccc3C1N(c1ccccc1)O2` (stereo not drawn): 55.5 µM; `C=CCNC(=O)N(CCC)CCCC(NC(C)=O)C(=O)NCc1ccccc1` (stereo not drawn): above 100 µM; `CN(C)C(=S)Nc1nnc(Nc2ccccc2)s1`: above 100 µM.
Turning to `CC(=O)[CH-]C(=O)c1ccccc1.CC(=O)[CH-]C(=O)c1ccccc1.CC1(C)OCC(C2OC3OC(C)(C)OC3C2[O-])O1.CC[O-].[Ti+4]` (stereo not drawn), the GI50 is 10.8 µM and the TGI is 24.8 µM.
`CCOC(=O)C1(Cc2ccc3ccccc3c2)CCCCC(=O)N1` (stereo not drawn) registered a TGI above 100 µM.
Regarding `O=[N+]([O-])c1ccc(-c2cc3c(Nc4ccc(Cl)c(C(F)(F)F)c4)ncnc3s2)cc1`, the GI50 is 0.774 µM and the TGI is above 100 µM.
For `Cc1ccccc1/C=C/C(=O)c1ccccc1`, the TGI was 38.7 µM.
Still for that read-out and setting: next, `COC(=O)C1C(=O)N(CCc2c[nH]c3ccccc23)C[C@@H]2CCC(=O)C[C@H]12` (stereo partly drawn): above 100 µM; `C[C@]12C/C(=C/O)C(=O)C(O)=C1CC[C@@H]1C2CC[C@@]2(C)C1CC[C@@H]2O` (stereo partly drawn): 48.1 µM.
Compound `Cc1ccc(C)c(N2C(=O)C(=O)C(c3nc4ccccc4s3)C(=Nc3cccc4c(=O)[nH][nH]c(=O)c34)C2=O)c1` (stereo not drawn) showed a TGI above 100 µM.
Turning to `Cc1cccc(C)c1N1C(=O)C(=O)C(c2nc3ccccc3s2)C(=Nc2cccc3c(=O)[nH][nH]c(=O)c23)C1=O` (stereo not drawn), the TGI was above 100 µM.
Still for that read-out and setting: as for `N#CC(C#N)=c1c2nsnc2c(=C(C#N)C#N)c2nsnc12`, the figure is 3.86 µM.

In another experiment the test system is OVCAR-5 ovarian. The experiment is described as follows: inhibition of tumour cell growth, NCI panel, 48 h.
For the compound `Cc1c2ccncc2c(C)c2c1[nH]c1ccc(O)c(OCC(F)(F)F)c12`, the TGI was 25.8 µM.
The same measure, in the same setting: next, `CC(C)(C)OC(=O)NC1CCCC1=O` (stereo not drawn): above 100 µM.
Still for that read-out and setting: next, `Cc1c(C(=O)/C=C/c2ccccc2[N+](=O)[O-])[n+](=O)c2ccccc2n1[O-]`: 26.9 µM.
